According to US4332800A, “Cephem compounds” (Fujisawa Pharmaceutical Co., Ltd., priority 1979, dated 1982):
≈ marks a conversion by molar mass, not a printed value.

Tests used:
Type in all cases: cell-based
S. marcescens 35 = experiment: Antimicrobial activity, minimal inhibitory concentration (agar streak) against S. marcescens 35; details: Serratia marcescens, 10^8 viable cells per ml, heart infusion agar, 37° C. for 20 hours
Method: (§1) Now in order to show the utility of the object compounds (I), test data on anti-microbial activity of a representative compound of the present invention are shown below.
(§2) One loopful of an overnight culture of each test strain in Trypticase-soy broth (10^8 viable cells per ml.) was streaked on heart infusion agar (HI-agar) containing graded concentrations of antibiotics, and the minimal inhibitory concentration (MIC) was expressed in terms of μg/ml after incubation at 37° C. for 20 hours.

B. subtilis ATCC 6633 = experiment: Antimicrobial activity, minimal inhibitory concentration (agar streak) against B. subtilis ATCC 6633; details: Bacillus subtilis, ATCC6633, 10^8 viable cells per ml, heart infusion agar, 37° C. for 20 hours
Method: as §1, §2

Ps. aeruginosa 2 = experiment: Antimicrobial activity, minimal inhibitory concentration (agar streak) against Ps. aeruginosa 2; details: Pseudomonas aeruginosa, 10^8 viable cells per ml, heart infusion agar, 37° C. for 20 hours
Method: as §1, §2

MIC (S. marcescens 35) | MIC (B. subtilis ATCC 6633) | MIC (Ps. aeruginosa 2) | SMILES
3.13 µg/mL (≈ 6.22 µM) | 0.39 µg/mL (≈ 0.774 µM) | 12.5 µg/mL (≈ 24.8 µM) | CCCO/N=C(\C(=O)NC1C(=O)N2C(C(=O)[O-])=C(C[n+]3ccccc3)CSC12)c1nsc(N)n1 (stereo not drawn) [(2)]
1.56 µg/mL (≈ 3.19 µM) | 0.78 µg/mL (≈ 1.59 µM) | 3.13 µg/mL (≈ 6.39 µM) | CCO/N=C(\C(=O)NC1C(=O)N2C(C(=O)[O-])=C(C[n+]3ccccc3)CSC12)c1nsc(N)n1 (stereo not drawn) [(1)]
3.13 µg/mL (≈ 5.88 µM) | 0.78 µg/mL (≈ 1.46 µM) | 25 µg/mL (≈ 46.9 µM) | CCO/N=C(\C(=O)NC1C(=O)N2C(C(=O)[O-])=C(C[n+]3ccc(C(N)=O)cc3)CSC12)c1nsc(N)n1 (stereo not drawn) [(3)]
